Values joined by “and” are separate entries in the source; they are usually repeats but may differ in a detail not shown here. Identical values can stand only once.
Tests used:
[1] = Selectivity of 1: reaction with ·OH; conditions: for Fluorescence: 40 min minus 0 min
Procedure: The reactivity of 1 with ·OH was also investigated. ·OH was generated through the reaction of FeSO4·7H2O with H2O2. A solution of 100 μM 1 in ethanol (20 μL) was added to 5:95 methanol/50 mM phosphate pH 7 buffer (140 μL). Water or 104 U/mL catalase (20 μL) was added to the mixture. FeSO4·7H2O (27.4 mg) was added to ultrapure water (2.00 mL). This solution was diluted to 20 μM, 200 μM, and 2.00 mM. H2O2 was diluted to 200 μM and 2.00 mM. Equal volumes of FeSO4·7H2O solution and H2O2 were added together, and an aliquot (20 μL) was immediately transferred to the solution containing 1. The fluorescence intensity was measured immediately and again after incubation at 25° C. for 40 min. […] The Fluorescence values in Table 8 are the fluorescence at 40 min minus the fluorescence at 0 min.

zebrafish = assay: Zebrafish tail wound-healing model imaging of H2O2; format: in vivo; conditions: three-day post-fertilization zebrafish embryos, 1 mM 1 for 2 h
Description: H2O2 has been recognized as a critical signaling molecule for the recruitment of immune cells for wound regeneration. To date, only genetically encoded protein-based fluorescent probes have been able to illuminate the spatiotemporal dynamics of H2O2 for wound healing models in zebrafish. It was hypothesized that our method might be rapid enough to match the protein-based imaging in vivo. As a platform to test this hypothesis, 1 was applied to image a zebrafish tail wound-healing model.
Three-day post-fertilization zebrafish embryos were removed from their chorion and allowed to swim in 1 mM 1 for 2 h (0.1% v/v DMSO), leading to effective dye loading. Following this, the fish were anesthetized and mounted in agar. The tail fins were clipped with a razor blade.
Fluorescence images were obtained every 60 s for 60 min using an inverted Nikon TiE fluorescent microscope (Nikon Inc., Melville, NY) equipped with a 20× 0.75 NA lens and NIS Elements Software. The sample was excited using the 470 nm line of a Lumencor diode-pumped light engine (SpectraX, Lumencor Inc., Beaverton OR), and the fluorescence signals were detected using an ET-GFP filter set (Chroma Technology Corp) and ORCA-Flash 4.0 sCMOS camera (HAMAMATSU Corporation, Bridgewater, NJ).

[2] = Fluorescence intensity of selenide 1 and phenol 5; format: physicochemical
Procedure: All fluorescence measurements (excitation 490 nm, emission 510-570 nm) were carried out using a Promega Biosystems Modulus II Microplate Reader or a HoribaMax Fluorometer unless otherwise stated. Data analysis was performed using GraphPad Prism 8.
The fluorescence intensity of selenide 1 and phenol 5 were investigated. Solutions containing ultrapure water (681 μL), […] phosphate pH 7 buffer (31 μL), DMSO (28.1 μL), and 80 μM 1 or phenol 5 in DMSO (9.4 μL) were made. Aliquots of these solutions (200 μL) were transferred to the wells of a black 96-well plate and the fluorescence was measured. As evident from FIG. 10 and Table 1, the difference in fluorescence intensity of probe 1 and phenol 5, is 27-fold. Generally, O-alkylation of Pittsburgh Green suppresses the fluorescence by 200-400 fold. The somewhat modest fluorescence increase in the current system is attributed to the trace contamination of the fluorescent compound 5 during the purification of the nonfluorescent probe 1.

RAW cells = assay: Imaging of endogenous H2O2 upon ionomycin stimulation in RAW cells; format: cell-based
Description: After detecting exogenously added H2O2 in cells, the focus shifted to more biologically relevant, endogenous H2O2. It was attempted to monitor endogenous H2O2 production upon stimulation with ionomycin in RAW cells. […] In contrast, with probe 1, a significant response was observed within 30 s after the addition of ionomycin relative to the baseline fluorescence (FIG. 24B-C) and peaked at 48 s.

[3] = Stability of 1 under ambient conditions by 1H NMR; format: physicochemical; conditions: room temperature, in air
Description: Since organic selenides are prone to oxidation in air, the stability of 1 under ambient conditions was investigated. To study the stability of 1, the ^1H NMR spectra of 1 in DMSO-d6 were obtained at specified intervals (days 1, 7, 14, 21, 30 and 60). The solution was left at room temperature and in air throughout the entire period.
[drawing 26] were observed. […] Even so, the compound was quite resistant to oxidative decomposition up to 60 days as manifested by the presence of only less than 10% acrolein.

[4] = Selectivity of 1: reaction with O2^·−; conditions: for Fluorescence Intensity: 15 min
Procedure: Following the concentration dependence studies, the selectivity of 1 was assessed against O2^·−, ^1O2, ·OH, ClO^−, ONOO^−, 'BuOOH, NO3^−, NO2, and NO·. […] The production of some of these ROS required H2O2 as a reagent or generated H2O2 as a product, for which we carefully performed control experiments as detailed below. For example, a solution of 100 μM 1 in ethanol (20 μL) was added to 5:95 methanol/50 mM phosphate pH 7 buffer (140 μL). […] A control containing 100 μM 1 in ethanol (20 μL), 5:95 methanol/50 mM phosphate pH 7 buffer (160 μL), and 700 mM H2O2 (20 μL) was also generated. The solutions were allowed to incubate at 25° C. for 15 min prior to measuring fluorescence. […] Therefore, 1 is selective for H2O2 over O2^·−.

For Oc1ccc2c(c1)Oc1cc(O/C=C/C[Se]c3ccccc3)ccc1[C@@]21OCc2ccccc21 [Compound 1, (S,E)-6′-((3-(Phenylselanyl)prop-1-en-1-yl)oxy)-3H-spiro[isobenzofuran-1,9′-xanthen]-3′-ol], the “reaction with FeSO4 or ·OH” value [1] was “neither FeSO4 nor the ·OH reacted with the probe”, the Fluorescence ([1]; catalase, FeSO4 0 μM, 0 μM H2O2) was 31,506 and 41,340 and 38,159 and the Fluorescence ([1]; catalase, FeSO4 1 μM, 0 μM H2O2) was 28,688 and 24,359 and 45,310. The Fluorescence ([1]; catalase, FeSO4 1 μM, 100 μM H2O2) was 38,285 and 34,591 and 26,790, the Fluorescence ([1]; catalase, FeSO4 10 μM, 0 μM H2O2) was 24,822 and 33,920 and 47,376 and the Fluorescence ([1]; catalase, FeSO4 10 μM, 100 μM H2O2) was 32,300 and 42,724 and 50,635. For the same compound, the Fluorescence ([1]; catalase, FeSO4 100 μM, 0 μM H2O2) was 35,828 and 18,194 and 20,321, the Fluorescence ([1]; catalase, FeSO4 100 μM, 10 μM H2O2) was 20,486 and 26,765 and 15,423 and the Fluorescence ([1]; catalase, FeSO4 100 μM, 100 μM H2O2) was 46,232 and 46,921 and 52,666. The Fluorescence ([1]; no additive, FeSO4 0 μM, 0 μM H2O2) was 50,173 and 48,124 and 44,143, the Fluorescence ([1]; no additive, FeSO4 0 μM, 10 μM H2O2) was 43,929 and 46,186 and 43,989 and the Fluorescence ([1]; no additive, FeSO4 0 μM, 100 μM H2O2) was 85,271 and 94,742 and 95,713. For the same compound, the Fluorescence ([1]; no additive, FeSO4 1 μM, 0 μM H2O2) was 44,775 and 42,847 and 41,775, the Fluorescence ([1]; no additive, FeSO4 1 μM, 10 μM H2O2) was 49,425 and 47,262 and 44,251 and the Fluorescence ([1]; no additive, FeSO4 1 μM, 100 μM H2O2) was 86,594 and 103,905 and 91,684. The Fluorescence ([1]; no additive, FeSO4 10 μM, 0 μM H2O2) was 43,299 and 42,365 and 40,214, the Fluorescence ([1]; no additive, FeSO4 10 μM, 10 μM H2O2) was 42,933 and 40,908 and 38,283 and the Fluorescence ([1]; no additive, FeSO4 10 μM, 100 μM H2O2) was 91,049 and 90,712 and 94,948. For the same compound, the Fluorescence ([1]; no additive, FeSO4 100 μM, 0 μM H2O2) was 32,709 and 41,351 and 31,615, the Fluorescence ([1]; no additive, FeSO4 100 μM, 10 μM H2O2) was 56,260 and 46,281 and 43,358 and the Fluorescence ([1]; no additive, FeSO4 100 μM, 100 μM H2O2) was 99,384 and 99,391 and 95,778. For the same compound, the “time of maximum fluorescence after tail snipping” value (zebrafish) was 10 to 20 min, the “signal increase in the conversion if trace phenol 5 can be removed from selenide 1” value ([2]; extrapolated) was 125-250 fold and the “difference in fluorescence intensity of probe 1 and phenol 5” value ([2]; phosphate pH 7 buffer) was 27 fold. The “Fluorescence Intensity” value ([2]; water/phosphate pH 7 buffer/DMSO, 200 μL, excitation 490 nm, emission 510-570 nm, replicates n = 3) was 7,053 and 11,524 and 8,556, the “time of fluorescence peak after the addition of ionomycin” value (RAW cells) was 48 s and the “time to significant response after the addition of ionomycin” value (RAW cells; 0.5 μM 1, ionomycin 10 μM) was at most 30 s. The half-life ([3]; DMSO-d6 solution, read-out: half-life of cis-trans isomerization of the enol ether (converted)) was 60 days, the “acrolein present (oxidative decomposition)” value ([3]; [D6]DMSO, up to 60 days) was “less than 10%” and the “reaction with O2^·−” value [4] was “did not react”. For the same compound, the “Fluorescence Intensity” value ([4]; KO2 + 10 U/mL catalase, pH 7, 25° C.) was 104,768 and 72,151 and 98,514, the “Fluorescence Intensity” value ([4]; KO2 + 10^4 U/mL catalase, pH 7, 25° C.) was 63,553 and 41,950 and 67,009 and the “Fluorescence Intensity” value ([4]; KO2, phosphate pH 7, 25° C.) was 106,099 and 92,938 and 99,300.

Reference: patent US12540150B1, “Fluorogenic probe using a Mislow-Evans rearrangement for real-time imaging of hydrogen peroxide” (University of Pittsburgh—Of the Commonwealth System of …, priority 2020, dated 2026)
